Measured values as given in US20100184596A1, “METHOD FOR THE CONTROL OF WEEDS IN TURF” (SYNGENTA CROP PROTECTION, INC., priority 2007, published 2010).

Test system: turfgrass
Assay: Example B4, conclusion in words
Format: in vivo
Conditions: applied with Formula I
Protocol: The phytotoxicity to turfgrass of the compound of formula I in combination with various safeners was tested. The combinations were applied by post emergence spray application. Percentage phytotoxicity assessments were taken at various timepoints. The safeners tested in these trials were cloquintocet-mexyl, cyprosulfamide, a compound of formula 2.3, and isoxadifen-ethyl.

Structure (SMILES)	safener effectiveness, in words
CNC(=O)Nc1ccc(S(=O)(=O)NC(=O)c2ccccc2OC)cc1 [Formula 2.3]	particular effective safeners
COc1ccccc1C(=O)NS(=O)(=O)c1ccc(C(=O)NC2CC2)cc1 [cyprosulfamide]	particular effective safeners
